Values after ≈ are worked out from the molar mass of the structure shown. Read-outs that look alike come from different tables or passages of the source. Each block holds one compound with its values, some of them ahead of it.
Experiments:
[1] = tested on: TNBC (Triple Negative Breast Cancer; MDA-MB-231) cells; test: Xenografted breast tumor growth, ORG 34517 plus Taxol (Example 1); assay type: in vivo, CB-17 SCID mice; details: for relative tumor growth: N=3, control Veh/Veh 379%
Protocol: This study is performed to obtain evidence for enhancement of chemotherapy sensitivity of GR+/ER−/PR−/Her2-neu− breast cancer cells by blocking stress-mediated cell survival pathways with a GR antagonist. In the present pilot study, the GR antagonist ORG 34517, is investigated, in one dose, in combination with the chemotherapeutic agent Taxol. Both the Taxol and ORG 34517 doses are selected based on previous experiments.
Materials and Methods—1×107 TNBC (Triple Negative Breast Cancer; MDA-MB-231) cells in 50 ul of PBS (phosphate buffered saline) are injected into the mammary fat pad of 4-5 week old CB-17 SCID mice (Taconic Labs). The mice are allowed to form xenografted breast tumors of approximately 200 mm3 volume. When tumors reach an average of 200 mm3 (Week “0”), 15 mice are separated into the 3 treatment groups 1) vehicle, 2) paclitaxel (Taxol), 3) ORG 34517+ paclitaxel. The used paclitaxel dose is 10 mg/kg/day dissolved in Ethanol/Sesame Oil; ORG 34517 is administered in the maximum soluble dose of 20.5 mg/kg/day dissolved in Ethanol/Castor Oil. The mice receive intraperitoneal injections (200 ul) of drugs for 5 consecutive days (day 1-5). Tumors are measured three times per week. Tumor size is both expressed as absolute volume and as relative growth in comparison to baseline (day 0).
Results—Treatment of the animals is started when the tumor has a volume of at least 100 mm3. The total experimental group consisted of 15 animals. In 6 animals the tumor growth was considered not sufficient. […] In the control situation the tumor grows within 13 days with about 800 mm3 (see raw data). To correct for baseline differences, for each animal the relative tumor growth is calculated. Relative growth is defined as (tumor size day x−tumor size day 0)/tumor size day 0. Group averages for the relative tumor growth are depicted in FIG. 1. In the control condition (VehlVeh) the relative growth is 379%. […] A further reduction of the growth is induced by the addition of ORG 34517 (517/Taxo). The relative growth of this latter group is 100%.
A repeated measures ANOVA did reveal a significant time-effect (F5,36)=2.73; p=0.035), a significant treatment effect (F(2,36)=26.86; p=0.000) and a significant interaction (F(10,36)=2.36; p=0.029). […] This statistical analysis should be considered explorative because of the pilot nature of the study.

[2] = tested on: ER-GR+ human breast cancer cells; test: Tumor volume in mice implanted with ER-GR+ breast cancer cells (Example 2); assay type: in vivo; details: i.p. vehicle alone vs Paclitaxel alone vs Paclitaxel and ORG 34517; 3 mice per group
Excerpt: (§1) As tumor volume in each mouse approached the test threshold of 200 mm3, the mice were randomized to receive intraperitoneal injections of vehicle alone, chemotherapy (Paclitaxel) alone, and chemotherapy and ORG 34517. Each group contained 3 mice.
as §1, with “Mice were implanted with cultured ER-GR+ human breast cancer cells. As” for “As”

[3] = Solubility in different solvents; assay type: physicochemical
Protocol: The solubility of (11β,17β)-11-(1,3-benzodioxol-5-yl)-17-hydroxy-17-(1-propynyl)estra-4,9-dien-3-one is determined in different solvents. These solutions can be of use for clinical treatment with the advantages as mentioned above.

[4] = Behaviour in conventional dosage forms (capsule or tablet); assay type: in vivo; details: like a capsule or a tablet
Excerpt: Another dosage form than a conventional tablet or capsule may be able to circumvent these issues.

[5] = molecular target: T1, glucocorticoid receptor (Homo sapiens, UniProt P04150); details: disclosed in U.S. Pat. No. 6,011,025; cited from earlier work
T1 sequence (P04150 1-777): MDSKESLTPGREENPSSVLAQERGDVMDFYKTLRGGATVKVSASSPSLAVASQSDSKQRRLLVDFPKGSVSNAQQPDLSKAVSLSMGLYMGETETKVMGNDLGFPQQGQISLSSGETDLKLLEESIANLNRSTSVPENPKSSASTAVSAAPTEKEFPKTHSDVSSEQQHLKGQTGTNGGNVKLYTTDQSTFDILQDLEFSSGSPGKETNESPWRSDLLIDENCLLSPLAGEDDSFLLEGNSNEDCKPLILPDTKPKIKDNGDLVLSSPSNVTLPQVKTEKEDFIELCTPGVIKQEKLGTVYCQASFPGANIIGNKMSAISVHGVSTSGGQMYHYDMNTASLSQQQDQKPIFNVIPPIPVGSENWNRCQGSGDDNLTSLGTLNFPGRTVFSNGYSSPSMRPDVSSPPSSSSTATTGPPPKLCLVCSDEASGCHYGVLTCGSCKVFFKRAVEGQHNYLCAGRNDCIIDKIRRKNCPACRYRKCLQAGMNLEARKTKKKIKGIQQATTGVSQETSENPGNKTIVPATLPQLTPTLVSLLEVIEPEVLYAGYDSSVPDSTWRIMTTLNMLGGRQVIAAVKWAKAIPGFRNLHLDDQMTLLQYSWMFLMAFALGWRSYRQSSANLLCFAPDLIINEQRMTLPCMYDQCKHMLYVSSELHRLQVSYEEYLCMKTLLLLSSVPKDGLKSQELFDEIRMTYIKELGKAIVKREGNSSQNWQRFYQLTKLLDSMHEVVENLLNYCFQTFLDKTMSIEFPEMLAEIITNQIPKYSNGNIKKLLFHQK

[6] = disclosed in U.S. Pat. No. 6,011,025; cited from earlier work
[7] = tested on: mineralocorticoid, progesterone, estrogen and androgen receptors; details: such as those for estrogen and progesterone; cited from earlier work
[8] = all phase I and phase II clinical trials performed with the compound; cited from earlier work

SMILES: CC(=O)O[C@H]1C(=O)[C@@]2(C)[C@H]([C@H](OC(=O)c3ccccc3)[C@]3(O)C[C@H](OC(=O)[C@H](O)[C@@H](NC(=O)c4ccccc4)c4ccccc4)C(C)=C1C3(C)C)[C@]1(OC(C)=O)CO[C@@H]1C[C@@H]2O [Taxol, paclitaxel, reference compound]
relative tumor growth ([1]; Taxol 10 mg/kg/day i.p. day 1-5 (Veh/Taxo)): 183%
effect on tumor growth ([1]; Taxol injections alone): reduced the tumor growth

solubility ([3]; Arachis oil): 2.46 mg/g
solubility ([3]; Benzylalcohol): 390 mg/g
solubility ([3]; Castor oil): 7.38 mg/g
solubility ([3]; Castor oil:benzylbenzoate (90:10)): 15.0 mg/g
solubility ([3]; Castor oil:propylene glycol laurate (0.55:0.45; v:v)): 9.4 mg/g
solubility ([3]; Corn oil): 2.58 mg/g
solubility ([3]; Cremophor EL): 23 mg/g
solubility ([3]; Gelicure 44/14, oil or lipid, read-out: Solubility): 100 mg/mL (≈ 232000 µM)
solubility ([3]; Glucofurol:water (50:50), aqueous with cosolvent or surfactant or cyclodextrin, read-out: Solubility): 0.7 mg/mL (≈ 1630 µM)
solubility ([3]; Glycoferol, organic solvent or mixture, read-out: Solubility): 118 mg/mL (≈ 274000 µM)
solubility ([3]; HPβCD, 10% in water, aqueous with cosolvent or surfactant or cyclodextrin, read-out: Solubility): 0.207 mg/mL (≈ 481 µM)
solubility ([3]; HPβCD, 20% in water, aqueous with cosolvent or surfactant or cyclodextrin, read-out: Solubility): 0.395 mg/mL (≈ 917 µM)
solubility ([3]; HPβCD, 40% in water, aqueous with cosolvent or surfactant or cyclodextrin, read-out: Solubility): 0.8 mg/mL (≈ 1860 µM)
solubility ([3]; Medium Chain monoglyceride/glycerol monocaprylate): 28 mg/g
solubility ([3]; Miglyol 812): 4.5 mg/g
solubility ([3]; Mulgofen:water (5:95), aqueous with cosolvent or surfactant or cyclodextrin, read-out: Solubility): 2 mg/mL (≈ 4650 µM)
solubility ([3]; Olive oil): 2.26 mg/g
solubility ([3]; PEG 400, organic solvent or mixture, read-out: Solubility): 34.4 mg/mL (≈ 79900 µM)
solubility ([3]; PEG 400:water (60:40), aqueous with cosolvent or surfactant or cyclodextrin, read-out: Solubility): 0.0006 mg/mL (≈ 1.39 µM)
solubility ([3]; PEG 1500, organic solvent or mixture, read-out: Solubility): 37 mg/mL (≈ 85900 µM)
solubility ([3]; Polysorbate in water (0.5%)): <LOD
solubility ([3]; Soy oil): 2.70 mg/g
solubility ([3]; Span 80): 7 mg/g
solubility ([3]; TPGS:PEG 400:propyleneglycol (12:17:55), organic solvent or mixture, read-out: Solubility): 0.7 mg/mL (≈ 1630 µM)
solubility ([3]; TPGS:PEG 400:propyleneglycol (20:60:5), organic solvent or mixture, read-out: Solubility): 0.9 mg/mL (≈ 2090 µM)
solubility ([3]; acetone, organic solvent or mixture, read-out: Solubility): > 10 mg/mL
solubility ([3]; acetonitrile, organic solvent or mixture, read-out: Solubility): > 10 mg/mL
solubility ([3]; aqueous with cosolvent or surfactant or cyclodextrin, TPGS:d-Alpha Tocopheryl Polyethylene Glycol 1000 Succinate (20%, as delivered), read-out: Solubility): 1.1 mg/mL (≈ 2550 µM)
solubility ([3]; dimethylsulfoxide, organic solvent or mixture, read-out: Solubility): > 100 mg/mL
solubility ([3]; dog bile:phosphate buffer (1:1), plasma or biological fluid, Dog bile:phosphate buffer (pH = 6.5) (1:1), read-out: Solubility): ~0.08 mg/mL (≈ 186 µM)
solubility ([3]; ethanol, organic solvent or mixture, read-out: Solubility): > 10 mg/mL
solubility ([3]; ethanol:PEG 400:propylene glycol (10:50:40), organic solvent or mixture, read-out: Solubility): 28.6 mg/mL (≈ 66400 µM)
solubility ([3]; ethanol:PEG 400:propylene glycol:water (10:40:40:10), aqueous with cosolvent or surfactant or cyclodextrin, read-out: Solubility): 14 mg/mL (≈ 32500 µM)
solubility ([3]; methanol, organic solvent or mixture, read-out: Solubility): > 10 mg/mL
solubility ([3]; propylene glycol, organic solvent or mixture, read-out: Solubility): 8.9 mg/mL (≈ 20700 µM)
solubility ([3]; water with sodium lauryl sulphate 0.5% w/v, aqueous with cosolvent or surfactant or cyclodextrin, Water-Sodium lauryl sulphate (0.5% w/v), read-out: Solubility): 0.24 mg/mL (≈ 557 µM)
solubility ([3]; water with sodium lauryl sulphate 1.0% w/v, aqueous with cosolvent or surfactant or cyclodextrin, Water-Sodium lauryl sulphate (1.0% w/v), read-out: Solubility): 0.377 mg/mL (≈ 876 µM)
solubility ([3]; water, read-out: Solubility): 0.003 mg/mL (≈ 6.97 µM)
SMILES: CC#C[C@]1(O)CC[C@H]2[C@@H]3CCC4=CC(=O)CCC4=C3[C@@H](c3ccc4c(c3)OCO4)C[C@@]21C [ORG 34517, (11β,17β)-11-(1,3-benzodioxol-5-yl)-17-hydroxy-17-(1-propynyl) estra-4,9-dien-3-one]
tumor growth in comparison to Veh/Taxo treatment ([1]; 517/Taxo, all three animals, individual scores): decreased tumor growth
relative tumor growth ([1]; ORG 34517 20.5 mg/kg/day + Taxol 10 mg/kg/day i.p. day 1-5 (517/Taxo)): 100%
animals with tumor shrinkage during treatment ([1]; ORG 34517 20.5 mg/kg/day + Taxol 10 mg/kg/day i.p. for 5 days): 2 out of 3
effect on the chemotherapeutic effect of Taxol ([1]; ORG 34517 i.p. 20.5 mg/kg/day for 5 days): potentiated the chemotherapeutic effect of Taxol
attained tumor volume [2]: significant differences in attained tumor volume
exposure behaviour [4]: low exposure, high dose variability, large food effect and non-dose linearity
glucocorticoid receptor binding affinity [5]: high
androgenic and progestagenic activities [6]: low
cross-binding to other related steroidal hormone receptors [7]: without significant cross-binding
significant toxicities and side effects [8]: none were identified

— patent publication US10058563B2, “System and method for diagnosis and treatment” (Pop Test Oncology Limited Liability Company, priority 2011, dated 2018)
